Experimental data as given in US10183955B2, “Molecules for isolation of polyribosomes, ribosomes, uses and kits thereof” (Immagina Biotechnology S.r.l., priority 2015, dated 2019).

Tests used:
IVTT euk-mix = test: EGFP expression in IVTT euk-mix, Western blot; type: biochemical; settings: 1 hour, 30° C., 2 μg plasmid, 50 μL IVTT euk-mix
Procedure: FIG. 10. Expression of the firefly luciferase and the Enhanced Green Fluorescent Protein (EGFP) in the presence of 3P. (a, top), Effect of 3P on luciferase protein expression. ε-Labeled biotinylated lysine-tRNAs is used to monitor the protein production by SDS-PAGE. (a, bottom), Histogram representing the relative quantification (density fold change) of the bands reported in the western blot (up), respect to the control (input, reaction mix without 3P). Reactions are carried out in a final volume of 50 μL of IVTT euk-mix. Error bars represent s.d. calculated from a duplicate experiment; (b, top-left), Scheme of the plasmid used for EGFP expression. Restriction sites used to clone the gene are reported. (b, top-right) The effect of 3P on EGFP expression monitored by Western Blot analysis. Reactions are performed in a final volume of 50 μL of IVTT euk-mix (up) or IVTT pro-mix (down). (b, bottom). Effect of 3P and 3PP on EGFP expression in a IVTT euk-mix.
FIG. 15. Isolation of actively translated GFP transcripts after in vitro expression of EGFP protein. (a, left) The two plasmids used for EGFP expression (pBluescript II KS+, Genscript; pPR-IBA2, IBA, #2-1391-000). […] The relative abundance is reported as 2^(39-Cq), where 39 are the number of cycles and Cq is the quantification cycle. […]

[1] = test system: in vitro-cell free translation system (IVTT euk-mix); test: In vitro cell-free expression of firefly luciferase (IVTT euk-mix), SDS-PAGE and luminescence; type: biochemical
Procedure: FIG. 9. Effect of 3P and puromycin on in vitro-cell free expression of the luciferase gene. Luciferase protein production in the presence of different concentrations of puromycin and 3P (left panel). The firefly luciferase is expressed in vitro (90 min) adding z-labeled biotinylated lysine-tRNAs to the reaction. After incubation with streptavidin-HRP, the protein is visualized by chemiluminescence.
To date, no structural data are available for puromycin binding in complex with the eukaryotic ribosome, while the bonding of a puromycin derivative in bacterial ribosome is well described^49. […] In particular, we tested the effect of 3P on an in vitro-cell free translation system (hereinafter called “IVTT euk-mix”: TNT Quick coupled Transcription/Translation System, Promega #L2881) using a firefly luciferase gene (Promega #L4741). […] After 90 minutes of incubation, we monitored the protein production by SDS-PAGE and luminescence assay (FIG. 9). […]
The luciferase translation efficiency was monitored by means of luminescence signal using the Bright-Glo™ Luciferase Assay System (Promega, E2610) and the Infinite 200 PRO reader (Tecan), according to the manufacturer's instruction. […]

Row | SMILES | effect on EGFP expression (free in solution) (IVTT euk-mix) | b of best fit y=A*exp(−x/b) of luciferase expression as a function of concentration (A=100) ([1]; concentrations 0, 0.01, 0.1, 1, 10 μM, n=3) | protein synthesis upon titration ([1]; firefly luciferase, 90 minutes, 0-10 μM)
1 | COC(=O)C[C@](O)(CCC(C)(C)O)C(=O)O[C@@H]1C(OC)=C[C@]23CCCN2CCc2cc4c(cc2[C@H]13)OCO4 [harringtonine] | inhibitory effect | – | –
2 | COc1ccc(C[C@H](N)C(=O)N[C@H]2[C@@H](O)[C@H](n3cnc4c(N(C)C)ncnc43)O[C@@H]2CO)cc1 [puromycin] | – | 0.020±0.003 | exponential decay of the protein synthesis
